Data reported in the supplement of paper PMC5579334.

Assays:
HS-PSS [1] = test: drug sensitivity score (DSS, CellTiter-Glo viability, 72 h) (DSS (dimensionless)); higher = more sensitive; extreme values may be limits of the assay
In short: (§1)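 MPNST cell lines and primary human Schwann cells were seeded at 750–1000 cells per well into 384-well plates preprinted with each compound at five concentrations in 10-fold steps, then incubated 72 h at 37 °C, 5% CO2. CellTiter-Glo ATP luminescence gave viability, scaled between vehicle and positive-control wells, with duplicates averaged where present. Curves were fitted with a four-parameter logistic model. Percent inhibition refers to the top concentration, while drug sensitivity score and relative IC50, censored at the top concentration, come from these fits.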

HS-Sch-2 [2] = test: as above
In short: as §1

YST-1 [3] = test: as above
In short: as §1

HS-PSS [4] = test: drug sensitivity score (DSS, CellTox-Green cytotoxicity, 72 h) (DSS (dimensionless)); higher = more cytotoxic; extreme values may be limits of the assay
In short: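 For 72 h at 37 °C, MPNST cell lines and primary human Schwann cells were exposed in 384-well plates to five 10-fold compound dilutions. CellTox-Green, added before seeding at a final 1:1000 dilution, gave fluorescence from DNA released by disrupted cells. Signals were scaled to vehicle and positive-control wells, cultures failing plate quality control were left out, and four-parameter logistic fits were applied. Relative IC50 and drug sensitivity score were derived from the fits, with IC50 censored at the top concentration.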

HS-PSS [5] = test: % inhibition of CellTiter-Glo viability at highest tested concentration (72 h), relative to DMSO and benzethonium chloride controls; higher = more inhibition
In short: as §1

HS-Sch-2 [6] = test: as above
In short: as §1

YST-1 [7] = test: as above
In short: as §1

Structure (SMILES) | drug sensitivity score (HS-PSS [1]) | drug sensitivity score (HS-Sch-2 [2]) | drug sensitivity score (YST-1 [3]) | drug sensitivity score (HS-PSS [4]) | % inhibition (HS-PSS [5]) [%] | % inhibition (HS-Sch-2 [6]) [%] | % inhibition (YST-1 [7]) [%]
CN(C)C(=O)c1cc2cnc(Nc3ccc(N4CCNCC4)cn3)nc2n1C1CCCC1 [Ribociclib] (max concentration tested 10000 nM) | 1.83 | 1.85 | 6.07 | 0 | 28.2 | 25.4 | 67
FC(F)(F)c1ccc(/C=C/c2nc(COc3ccc(CCCCn4ccnn4)cc3)co2)cc1 [Mubritinib] (max concentration tested 1000 nM) | 17.4 | 12.9 | 6.65 | 0 | 74.8 | 62.9 | 28.4
O=C(NC[C@H](O)CN1CCc2ccccc2C1)c1cc(NC2COC2)ncn1 (max concentration tested 10000 nM) | 0.24 | 0.29 | 0.06 | 0 | 17.6 | 10.7 | 14.1
COc1cc(OC)c(/C=C/S(=O)(=O)Cc2ccc(OC)c(NCC(=O)O)c2)c(OC)c1 [Rigosertib] (max concentration tested 10000 nM) | 14.8 | 21.8 | 21.8 | 0 | 61.8 | 87.6 | 79.3
COc1ccc2c(OCc3nnc4ccc(-c5ccccc5)nn34)ccnc2c1 [AMG-208] (max concentration tested 2500 nM) | 0.98 | 0 | 0 | 0 | 9.98 | 7.53 | -2.81
CC(=O)c1cnc2ccc(-c3cc(Cl)c(O)c(Cl)c3)nc2c1N[C@H]1CC[C@H](CN(C)C)CC1 [OTSSP167] (max concentration tested 1000 nM) | 4.33 | 18.5 | 23.8 | 0.29 | 83.1 | 101 | 100
CCN1CCN(Cc2ccc(Nc3ncc(F)c(-c4cc(F)c5nc(C)n(C(C)C)c5c4)n3)nc2)CC1 [Abemaciclib] (max concentration tested 2500 nM) | 1.78 | 1.05 | 6.03 | 0.89 | 22 | 31.6 | 28.3
C1=N/C2=N/c3ccc(OCCN4CCCC4)c(c3)COC/C=C/COCc3cccc(c3)C(=C1)N2 [Pacritinib] (max concentration tested 10000 nM) | 10.8 | 8.63 | 8.15 | 4.15 | 99.4 | 99.6 | 100
Cc1ncc(Cl)cc1NCc1ccc(C(=O)N[C@@H](CC2CCCC2)C(=O)NC2CC2)s1 (max concentration tested 5000 nM) | 0 | 0.17 | 8.01 | 0 | 10.8 | 12.8 | 45.9
NCC(=O)Nc1ccc(-n2nc(C(F)(F)F)cc2-c2ccc3c(ccc4ccccc43)c2)cc1 (max concentration tested 25000 nM) | 4.86 | 7.03 | 5.55 | 7.95 | 101 | 101 | 101
Cc1cc(C)c(/C=C2\C(=O)Nc3ccccc32)[nH]1 [Semaxanib] (max concentration tested 10000 nM) | 0 | 0 | 2.84 | 4.89 | 0.19 | -7.06 | 14.4
Cc1cc(-c2ncc(CC(=O)Nc3ccc(-c4cnccn4)cn3)cc2C)ccn1 [NVP-LGK974] (max concentration tested 10000 nM) | 3.51 | 3 | 0 | 0 | 45.4 | 52.2 | 1.59
O=C(CCCCCCNC(=O)c1cnc(N(c2ccccc2)c2ccccc2)nc1)NO [Rocilinostat] (max concentration tested 10000 nM) | 3.58 | 6.66 | 9.5 | 0.39 | 58.4 | 81.2 | 89.5
COc1cccc(OCCCN)c1-c1cc(Nc2cnc(C#N)cn2)n[nH]1 [Prexasertib] (max concentration tested 10000 nM) | 6.05 | 29.9 | 22.2 | 0.01 | 70 | 88.6 | 76.3
NC(=O)Nc1sc(-c2ccc(F)cc2)cc1C(N)=O [TPCA-1] (max concentration tested 25000 nM) | 3.59 | 1.36 | 3.91 | 0 | 41 | 17.7 | 46.1
CCN(CC)CCCC(C)Nc1ccnc2cc(Cl)ccc12 (stereo not given) [Chloroquine] (max concentration tested 100000 nM) | 18.7 | 17.1 | 9.66 | 9.74 | 102 | 102 | 102
Cn1nccc1Nc1nccc(-c2ccn([C@H](CO)c3ccc(Cl)c(F)c3)c(=O)c2)n1 [GDC-0994] (max concentration tested 10000 nM) | 0 | 5.84 | 1.37 | 0 | 8.18 | 92.6 | 40
CCNc1nc(Nc2cc(F)c(C(=O)N3CCOCC3)cc2OC)ncc1C(F)(F)F [GNE-7915] (max concentration tested 1000 nM) | 0 | 0.19 | 0 | 0 | 8.52 | 12.4 | 0.1

Structure (SMILES) | drug sensitivity score (HS-PSS [1]) | drug sensitivity score (HS-Sch-2 [2]) | drug sensitivity score (YST-1 [3]) | drug sensitivity score (HS-PSS [4]) | % inhibition (HS-PSS [5]) [%] | % inhibition (HS-Sch-2 [6]) [%] | % inhibition (YST-1 [7]) [%]
CN1CCN(C2CCN(C(=O)Nc3cc(Oc4ccc(NC(=O)C5(C(=O)Nc6ccc(F)cc6)CC5)c(F)c4)ccn3)CC2)CC1 [Golvatinib] (max concentration tested 2500 nM) | 0.68 | 0.68 | 1.35 | 0 | 23.6 | 19.2 | 17.2
Cc1c(C(=O)Nc2ccc(N3C[C@@H](C)O[C@@H](C)C3)nc2)cccc1-c1ccc(OC(F)(F)F)cc1 [Sonidegib] (max concentration tested 10000 nM) | 3.23 | 1.21 | 0 | 0 | 30.6 | 22.7 | 8.09
COc1cccc2c1C(=O)c1c(O)c3c(c(O)c1C2=O)C[C@@](O)(/C(CO)=N/NC(=O)CCCCCN1C(=O)C=CC1=O)C[C@@H]3O[C@H]1C[C@H](N)[C@H](O)[C@H](C)O1 [Aldoxorubicin] (max concentration tested 1000 nM) | 9.01 | 11 | 14.4 | 2.15 | 97.2 | 101 | 101
O=C(NOCCO)c1ccc2cncn2c1Nc1ccc(I)cc1F [GDC-0623] (max concentration tested 2500 nM) | 3.76 | 5.27 | 0 | 0.89 | 37.1 | 55 | 6.24
CN(C)C(=N)NC(=N)N [Metformin] (max concentration tested 100000 nM) | 0.59 | 0 | 0 | 0 | 19.4 | 7.35 | -0.71
Cc1cc(Nc2cc(N3CCN(C)CC3)nc(Sc3ccc(NC(=O)C4CC4)cc3)n2)n[nH]1 [Tozasertib] (max concentration tested 10000 nM) | 4.85 | 8.18 | 12.9 | 0 | 31.3 | 61.5 | 45.5
Cc1cc(Nc2ncc(Cl)c(Nc3ccccc3S(=O)(=O)C(C)C)n2)c(OC(C)C)cc1C1CCNCC1 [Ceritinib] (max concentration tested 2500 nM) | 10.6 | 1.13 | 8.09 | 0.17 | 64.5 | 30.9 | 82.3
COc1ccc(-c2nc(N3CCOCC3)c3sc(CN(C)c4ncc(C(=O)NO)cn4)cc3n2)cn1 [CUDC-907] (max concentration tested 10000 nM) | 31.6 | 31.9 | 40.4 | 19.2 | 98.6 | 99.5 | 100
CC(C)[C@H]1C(=O)N[C@@H](CCCNC(=N)N)C(=O)NCC(=O)N[C@@H](CC(=O)O)C(=O)N[C@H](Cc2ccccc2)C(=O)N1C [Cilengitide] (max concentration tested 10000 nM) | 0 | 1.06 | 0 | 0 | 1.31 | 27 | -3.66
O=C(O)c1ccc2c(c1)nc(Nc1cccc(Cl)c1)c1ccncc12 [Silmitasertib] (max concentration tested 10000 nM) | 4.36 | 2.47 | 6.93 | 0 | 66.2 | 52.4 | 97.4
CCCCc1nc2cc(/C=C/C(=O)NO)ccc2n1CCN(CC)CC [Pracinostat] (max concentration tested 10000 nM) | 12.4 | 15.9 | 22 | 6.63 | 94 | 101 | 100
Cc1sc2c(c1C)C(c1ccc(Cl)cc1)=N[C@@H](CC(=O)OC(C)(C)C)c1nnc(C)n1-2 [JQ1] (max concentration tested 10000 nM) | 10 | 13.1 | 13.1 | 0 | 59.1 | 76.3 | 72.6
O=C(Nc1cccc(C(F)(F)F)c1)Nc1cc(S(=O)(=O)NC2CC2)ccc1-c1ccsc1 [AGI-6780] (max concentration tested 10000 nM) | 0.86 | 2.42 | 0.34 | 0 | 24.7 | 28.6 | 12.9
CCCCNc1ncc(C(=O)NCc2ccc(-n3ccnc3)cc2)c(NC2CCC(O)CC2)n1 (stereo not given) [UNC2881] (max concentration tested 2500 nM) | 3.51 | 0 | 3.6 | 0 | 37 | 9.68 | 38.9
CC(=O)NCC(=O)N1[C@@H]2CC[C@H]1c1ccc(Nc3ncc(C(F)(F)F)c(NC4CCC4)n3)cc12 (max concentration tested 10000 nM) | 9.91 | 11.5 | 10.5 | 1.86 | 87.8 | 99.3 | 82.8
C[C@H]1Oc2cc(cnc2N)-c2c(nn(C)c2C#N)CN(C)C(=O)c2ccc(F)cc21 (max concentration tested 1000 nM) | 12.3 | 0.53 | 0 | 0 | 53.9 | 14.9 | 3.35
CN(C)C1CCN(C(=O)c2ccc(NC(=O)Nc3ccc(-c4nc(N5CCOCC5)nc(N5CCOCC5)n4)cc3)cc2)CC1 [Gedatolisib] (max concentration tested 1000 nM) | 17.4 | 12 | 19.4 | 0 | 73.4 | 80.3 | 93.2
